# According to patent publication US20260070945A1, “MACROCYCLIC IMMUNOMODULATORS” (Bristol-Myers Squibb Company, priority 2022, published 2026):
# *1 amine or outer side, *2 acyl side, *3 side chain or, on linkers, in order; H or OH if unused. Where a SMILES comes first, the peptide text is derived from it. Bridges are numbered along the chain shown (N, C = ends). [ ]: non-standard residue; d: D form. The star is where a group is joined. ξ: configuration not given here. X10 = O=C(O)COc1ccc(C[C@H](CC(=O)C[*:2])C(=O)[*:1])cc1; Phe(3-CF3) = N[C@@H](Cc1cccc(C(F)(F)F)c1)C(=O)O; Phe(4-COOH) = N[C@@H](Cc1ccc(C(=O)O)cc1)C(=O)O; Bip = N[C@@H](Cc1ccc(-c2ccccc2)cc1)C(=O)O; NH(CH2)14COOH = O=C(O)CCCCCCCCCCCCCCN*; Phe(3-Me) = Cc1cccc(C[C@H](N)C(=O)O)c1; γGlu = O=C(O)[C@H](CCC(=O)[*:2])N[*:1]; NH(CH2)12COOH = O=C(O)CCCCCCCCCCCCN*; Val(3-OH) = CC(C)(O)[C@H](N)C(=O)O; NHhexadecyl = CCCCCCCCCCCCCCCCN*; Cha = N[C@@H](CC1CCCCC1)C(=O)O; Thr(3ξ) = CC(O)[C@H](N)C(=O)O; X9 = NC(=O)CCCCCCCCCCCCCCN*; dDab = NCC[C@@H](N)C(=O)O; Carboxymethyl = O=C(O)C*; NMeA = CN[C@@H](C)C(=O)O; Dab = NCC[C@H](N)C(=O)O; AEEA = NCCOCCOCC(=O)O; ξC = NC(CS)C(=O)O
# Target: T1, PD-1/PD-L1 interaction (PE-labeled human PD-L1-Ig binding to Jurkat cell line over-expressing human PD-1) (Homo sapiens, UniProt Q15116)
# T1 construct: expressed in transfected cells; host or cells: Jurkat
# T1 sequence (Q15116 25-288): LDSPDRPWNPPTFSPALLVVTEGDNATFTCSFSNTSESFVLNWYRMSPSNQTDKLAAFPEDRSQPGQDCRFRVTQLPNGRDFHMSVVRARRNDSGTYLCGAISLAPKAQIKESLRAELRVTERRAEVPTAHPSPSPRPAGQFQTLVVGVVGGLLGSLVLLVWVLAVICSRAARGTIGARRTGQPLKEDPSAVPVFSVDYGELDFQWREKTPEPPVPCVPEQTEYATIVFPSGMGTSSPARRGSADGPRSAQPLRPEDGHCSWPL
# Test: Jurkat-PD-1 Cell Binding High-Content Screening Assay (CBA)
# Details: PE-labeled PD-L1-Ig 20 nM final, Jurkat-hPD-1 cells; read-out: Jurkat HPD1 PDL1 IC50
# Summary of the method: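 Cells 8×10^3/well, DMEM + 10% FCS; cpd 2 h, 37 °C; PE–PD-L1-Ig 20 nM final, 1 h; PFA fix + Hoechst 33342, 3× dPBS wash; high-content imager.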
row,SMILES,IC50 [nM]
1,CC(=O)NCCCC[C@@H]1NC(=O)[C@H](C(C)(C)O)NC(=O)[C@H](CC2CCCCC2)NC(=O)[C@H](CCN)NC(=O)[C@@H](CC(C)C)NC(=O)[C@H](C)N(C)C(=O)[C@H](CCC(N)=O)NC(=O)[C@H](Cc2ccc(-c3ccccc3)cc2)NC(=O)[C@H](Cc2ccc(C(=O)O)cc2)NC(=O)[C@H](Cc2cccc(C(F)(F)F)c2)NC(=O)[C@H](CC(=O)O)NC(=O)[C@H](Cc2ccc(OCC(=O)O)cc2)NC(=O)[C@H](Cc2ccc(OCC(=O)O)cc2)CC(=O)CSC[C@@H](C(=O)N[C@@H](CCN)C(=O)NCCOCCOCC(=O)N[C@@H](CC(=O)NCCCCCCCCCCCCCCC(N)=O)C(=O)O)NC1=O [Example 2637] (Y(Carboxymethyl)D[Phe(3-CF3)][Phe(4-COOH)][Bip]Q[NMeA][dL][Dab][Cha][Val(3-OH)]K(Ac)C[Dab][AEEA]D(X9)-OH; linker N-13 via X10),24.2
2,CC(=O)NCCCC[C@@H]1NC(=O)[C@H](C(C)(C)O)NC(=O)[C@H](CC2CCCCC2)NC(=O)[C@H](CCN)NC(=O)[C@@H](CC(C)C)NC(=O)[C@H](C)N(C)C(=O)[C@H](CCCNC(=N)N)NC(=O)[C@H](Cc2ccc(-c3ccccc3)cc2)NC(=O)[C@H](Cc2ccc(C(=O)O)cc2)NC(=O)[C@H](Cc2cccc(C(F)(F)F)c2)NC(=O)[C@H](CC(=O)O)NC(=O)[C@H](Cc2ccc(OCC(=O)O)cc2)NC(=O)[C@H](Cc2ccc(OCC(=O)O)cc2)NC(=O)CSC[C@@H](C(=O)N[C@@H](CCN)C(=O)NCCCCCCCCCCCCC(=O)O)NC1=O [Example 2638] ({CH2CO}-Y(Carboxymethyl)Y(Carboxymethyl)D[Phe(3-CF3)][Phe(4-COOH)][Bip]R[NMeA][dL][Dab][Cha][Val(3-OH)]K(Ac)C[Dab]-{NH(CH2)12COOH}; thioether N-14),9.1
3,CC(=O)NCCCC[C@@H]1NC(=O)[C@H](C(C)(C)O)NC(=O)[C@H](CC2CCCCC2)NC(=O)[C@H](CCN)NC(=O)[C@@H](CC(C)C)NC(=O)[C@H](C)N(C)C(=O)[C@H](CCCNC(=N)N)NC(=O)[C@H](Cc2ccc(-c3ccccc3)cc2)NC(=O)[C@H](Cc2ccc(C(=O)O)cc2)NC(=O)[C@H](Cc2cccc(C(F)(F)F)c2)NC(=O)[C@H](CC(=O)O)NC(=O)[C@H](Cc2ccc(OCC(=O)O)cc2)NC(=O)[C@H](Cc2ccc(OCC(=O)O)cc2)NC(=O)CSC[C@@H](C(=O)N[C@@H](CCN)C(=O)NCCOCCOCC(=O)NCCCCCCCCCCCCC(=O)O)NC1=O [Example 2639] ({CH2CO}-Y(Carboxymethyl)Y(Carboxymethyl)D[Phe(3-CF3)][Phe(4-COOH)][Bip]R[NMeA][dL][Dab][Cha][Val(3-OH)]K(Ac)C[Dab][AEEA]-{NH(CH2)12COOH}; thioether N-14),16.8
4,CC(=O)NCCCC[C@@H]1NC(=O)[C@H](C(C)(C)O)NC(=O)[C@H](CC2CCCCC2)NC(=O)[C@H](CCN)NC(=O)[C@@H](CC(C)C)NC(=O)[C@H](C)N(C)C(=O)[C@H](CCC(=O)O)NC(=O)[C@H](Cc2ccc(-c3ccccc3)cc2)NC(=O)[C@H](Cc2ccc(C(=O)O)cc2)NC(=O)[C@H](Cc2cccc(C(F)(F)F)c2)NC(=O)[C@H](CC(=O)O)NC(=O)[C@H](Cc2ccc(OCC(=O)O)cc2)NC(=O)[C@H](Cc2ccc(OCC(=O)O)cc2)NC(=O)CSC[C@@H](C(=O)N[C@@H](CCN)C(=O)NCCOCCOCC(=O)NCCCCCCCCCCCCC(=O)O)NC1=O [Example 2640] ({CH2CO}-Y(Carboxymethyl)Y(Carboxymethyl)D[Phe(3-CF3)][Phe(4-COOH)][Bip]E[NMeA][dL][Dab][Cha][Val(3-OH)]K(Ac)C[Dab][AEEA]-{NH(CH2)12COOH}; thioether N-14),39.7
5,CCCCCCCCCCCCCCCCNC(=O)CC[C@H](NC(=O)COCCOCCNC(=O)[C@H](CCN)NC(=O)[C@@H]1CSCC(=O)C[C@@H](Cc2ccc(OCC(=O)O)cc2)C(=O)N[C@@H](Cc2ccc(OCC(=O)O)cc2)C(=O)N[C@@H](CC(=O)O)C(=O)N[C@@H](Cc2cccc(C(F)(F)F)c2)C(=O)N[C@@H](Cc2ccc(C(=O)O)cc2)C(=O)N[C@@H](Cc2ccc(-c3ccccc3)cc2)C(=O)N[C@@H](CCC(N)=O)C(=O)N(C)[C@@H](C)C(=O)N[C@H](CC(C)C)C(=O)N[C@@H](CCN)C(=O)N[C@@H](CC2CCCCC2)C(=O)N[C@@H](C(C)(C)O)C(=O)N[C@@H](CCCCNC(C)=O)C(=O)N1)C(=O)O [Example 2641] (Y(Carboxymethyl)D[Phe(3-CF3)][Phe(4-COOH)][Bip]Q[NMeA][dL][Dab][Cha][Val(3-OH)]K(Ac)C[Dab][AEEA]E(NHhexadecyl)-OH; linker N-13 via X10),38.9
6,Cc1cccc(C[C@@H]2NC(=O)[C@H](CC(=O)O)NC(=O)[C@H](Cc3ccc(OCC(=O)O)cc3)NC(=O)[C@H](C)NC(=O)CSC[C@@H](C(=O)N[C@@H](CCN)C(=O)NCCCCCCCCCCCCC(=O)O)NC(=O)[C@H](Cc3cnc[nH]3)NC(=O)[C@H](C(C)(C)O)NC(=O)[C@H](CC3CCCCC3)NC(=O)[C@H](CCN)NC(=O)[C@@H](CC(C)C)NC(=O)[C@H](C)N(C)C(=O)[C@H](CCCNC(=N)N)NC(=O)[C@H](Cc3ccc(-c4ccccc4)cc3)NC(=O)[C@H](Cc3ccc(O)cc3)NC2=O)c1 [Example 2642] ({CH2CO}-AY(Carboxymethyl)D[Phe(3-Me)]Y[Bip]R[NMeA][dL][Dab][Cha][Val(3-OH)]HC[Dab]-{NH(CH2)12COOH}; thioether N-14),74.4
7,Cc1cccc(C[C@@H]2NC(=O)[C@H](CC(=O)O)NC(=O)[C@H](Cc3ccc(C(=O)O)cc3)NC(=O)[C@H](C(C)O)NC(=O)CSCC(C(=O)N[C@@H](CCN)C(=O)NCCCCCCCCCCCCC(=O)O)NC(=O)[C@H](CO)NC(=O)[C@H](C(C)(C)O)NC(=O)[C@H](CC3CCCCC3)NC(=O)[C@H](CCN)NC(=O)[C@@H](CC(C)C)NC(=O)[C@H](C)N(C)C(=O)[C@H](CCCNC(=N)N)NC(=O)[C@H](Cc3ccc(-c4ccccc4)cc3)NC(=O)[C@H](Cc3ccc(O)cc3)NC2=O)c1 (stereo partly drawn) [Example 2643] ({CH2CO}-[Thr(3ξ)][Phe(4-COOH)]D[Phe(3-Me)]Y[Bip]R[NMeA][dL][Dab][Cha][Val(3-OH)]S[ξC][Dab]-{NH(CH2)12COOH}; thioether N-14),39.9
8,Cc1cccc(C[C@@H]2NC(=O)[C@H](CC(=O)O)NC(=O)[C@H](Cc3ccc(C(=O)O)cc3)NC(=O)[C@H](C(C)O)NC(=O)CSC[C@@H](C(=O)N[C@@H](CCN)C(=O)NCCCCCCCCCCCCC(=O)O)NC(=O)[C@H](CO)NC(=O)[C@H](C(C)(C)O)NC(=O)[C@H](CC3CCCCC3)NC(=O)[C@H](CCN)NC(=O)[C@@H](CC(C)C)NC(=O)[C@H](C)N(C)C(=O)[C@H](CCCNC(=N)N)NC(=O)[C@H](Cc3ccc(-c4ccccc4)cc3)NC(=O)[C@H](Cc3ccc(C(=O)O)cc3)NC2=O)c1 (stereo partly drawn) [Example 2644] ({CH2CO}-[Thr(3ξ)][Phe(4-COOH)]D[Phe(3-Me)][Phe(4-COOH)][Bip]R[NMeA][dL][Dab][Cha][Val(3-OH)]SC[Dab]-{NH(CH2)12COOH}; thioether N-14),16.6
9,CC(C)C[C@H]1NC(=O)[C@H](C)N(C)C(=O)[C@H](CCCNC(=N)N)NC(=O)[C@H](Cc2ccc(-c3ccccc3)cc2)NC(=O)[C@H](Cc2ccc(C(=O)O)cc2)NC(=O)[C@H](Cc2cccc(C(F)(F)F)c2)NC(=O)[C@H](CC(=O)O)NC(=O)[C@H](Cc2ccc(OCC(=O)O)cc2)NC(=O)[C@H](C(C)O)NC(=O)CSC[C@@H](C(=O)N[C@H](CC(N)=O)C(=O)NCCCCCCCCCCCCC(=O)O)NC(=O)[C@H](CO)NC(=O)[C@H](C(C)(C)O)NC(=O)[C@H](CC2CCCCC2)NC(=O)[C@H](CCN)NC1=O (stereo partly drawn) [Example 2645] ({CH2CO}-[Thr(3ξ)]Y(Carboxymethyl)D[Phe(3-CF3)][Phe(4-COOH)][Bip]R[NMeA][dL][Dab][Cha][Val(3-OH)]SC[dN]-{NH(CH2)12COOH}; thioether N-14),114
10,CC(=O)NCCCC[C@@H]1NC(=O)[C@H](C(C)(C)O)NC(=O)[C@H](CC2CCCCC2)NC(=O)[C@H](CCN)NC(=O)[C@@H](CC(C)C)NC(=O)[C@H](C)N(C)C(=O)[C@H](CCC(N)=O)NC(=O)[C@H](Cc2ccc(-c3ccccc3)cc2)NC(=O)[C@H](Cc2ccc(C(=O)O)cc2)NC(=O)[C@H](Cc2cccc(C(F)(F)F)c2)NC(=O)[C@H](CC(=O)O)NC(=O)[C@H](Cc2ccc(OCC(=O)O)cc2)NC(=O)[C@H](Cc2ccc(OCC(=O)O)cc2)NC(=O)CSC[C@@H](C(=O)N[C@H](CCN)C(=O)NCCOCCOCC(=O)N[C@@H](CO)C(=O)NCCOCCOCC(=O)N[C@@H](CCC(=O)NCCCCCCCCCCCCCCC(=O)O)C(=O)O)NC1=O [Example 2650] ({CH2CO}-Y(Carboxymethyl)Y(Carboxymethyl)D[Phe(3-CF3)][Phe(4-COOH)][Bip]Q[NMeA][dL][Dab][Cha][Val(3-OH)]K(Ac)C[dDab][AEEA]S[AEEA]E(NH(CH2)14COOH)-OH; thioether N-14),161
11,CC(=O)NCCCC[C@@H]1NC(=O)[C@H](C(C)(C)O)NC(=O)[C@H](CC2CCCCC2)NC(=O)[C@H](CCN)NC(=O)[C@@H](CC(C)C)NC(=O)[C@H](C)N(C)C(=O)[C@H](CCC(N)=O)NC(=O)[C@H](Cc2ccc(-c3ccccc3)cc2)NC(=O)[C@H](Cc2ccc(C(=O)O)cc2)NC(=O)[C@H](Cc2cccc(C(F)(F)F)c2)NC(=O)[C@H](CC(=O)O)NC(=O)[C@H](Cc2ccc(OCC(=O)O)cc2)NC(=O)[C@H](Cc2ccc(OCC(=O)O)cc2)NC(=O)CSC[C@@H](C(=O)N[C@@H](CCN)C(=O)NCCOCCOCC(=O)N[C@@H](CCC(=O)NCCOCCOCC(=O)NCCCCCCCCCCCCCCC(=O)O)C(=O)O)NC1=O [Example 2652] ({CH2CO}-Y(Carboxymethyl)Y(Carboxymethyl)D[Phe(3-CF3)][Phe(4-COOH)][Bip]Q[NMeA][dL][Dab][Cha][Val(3-OH)]K(Ac)C[Dab][AEEA][γGlu][AEEA]-{NH(CH2)14COOH}; thioether N-14),47
